The results in this text go back to ChEMBL document CHEMBL1201862, “PubChem BioAssay data set” (2004).

The target in assay [1] is Melanin-concentrating hormone receptor 1 (Homo sapiens, UniProt Q99705). Put plainly: Fluorescence-based counterscreen for antagonists of the G-protein coupled receptor 7 (GPR7): cell-based high throughput dose response assay to identify antagonists of the melanin-concentrating hormone receptor 1 (MCHR1). The class given is functional.
The target in assay [2] is Neuropeptides B/W receptor type 1 (Homo sapiens, UniProt P48145). Description: Fluorescence-based dose response cell-based high throughput screening assay to identify antagonists of the G-protein coupled receptor 7 (GPR7). [Related pubchem assays: 1952 (Screening assay (GPR7 antagonists).), 1880 (Summary AID.)]. The class given is functional.
Assay [3] has as its system HEK293. Put plainly: cells. The class given is functional, cell-based. Conditions: Homo sapiens.
The nature of assay [4]: fluconazole-exposed Candida albicans growth modulators – fluorescence, retest, confirmation (AID 2467). In kind it is functional, cell-based.
The target of assay [5] is T1, Heat shock 70 kDa protein 1A (Homo sapiens, UniProt P0DMV8). Description: small-molecule inhibition of Hsp70 – biochemical, TR-FRET (AID 786).
In assay [6] the target is Nucleotide-binding oligomerization domain-containing protein 2 (Homo sapiens, UniProt Q9HC29). Put plainly: inhibition of NOD2-driven NF-kB reporter – cell-based, luminescence, uHTS, HEK293 (AID 1566). The class given is functional.
The subject of assay [7] is HEK293. Put plainly: cells. To be noted: Homo sapiens. In kind it is functional, cell-based. The source holds these as a separate data set.
The nature of assay [8]: NIH-3T3 fibroblast cytotoxicity, dose response, cytotoxicity control, cell-based, fluorescence, Alamar Blue, secondary assay (AID 2327).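 Note: NIH-3T3 mouse fibroblasts cultured with fluconazole at 8 µg/mL.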 In kind it is functional.
Assay [9] concerns the target T1, Heat shock 70 kDa protein 1A. Put plainly: small molecules displacing fluorescent ligand from Hsp70 – biochemical, fluorescence polarization, primary screen (AID 583).
The target of assay [10] is T2, Nucleotide-binding oligomerization domain-containing protein 1 (Homo sapiens, UniProt Q9Y239).
T2 sequence (Q9Y239 whole entry): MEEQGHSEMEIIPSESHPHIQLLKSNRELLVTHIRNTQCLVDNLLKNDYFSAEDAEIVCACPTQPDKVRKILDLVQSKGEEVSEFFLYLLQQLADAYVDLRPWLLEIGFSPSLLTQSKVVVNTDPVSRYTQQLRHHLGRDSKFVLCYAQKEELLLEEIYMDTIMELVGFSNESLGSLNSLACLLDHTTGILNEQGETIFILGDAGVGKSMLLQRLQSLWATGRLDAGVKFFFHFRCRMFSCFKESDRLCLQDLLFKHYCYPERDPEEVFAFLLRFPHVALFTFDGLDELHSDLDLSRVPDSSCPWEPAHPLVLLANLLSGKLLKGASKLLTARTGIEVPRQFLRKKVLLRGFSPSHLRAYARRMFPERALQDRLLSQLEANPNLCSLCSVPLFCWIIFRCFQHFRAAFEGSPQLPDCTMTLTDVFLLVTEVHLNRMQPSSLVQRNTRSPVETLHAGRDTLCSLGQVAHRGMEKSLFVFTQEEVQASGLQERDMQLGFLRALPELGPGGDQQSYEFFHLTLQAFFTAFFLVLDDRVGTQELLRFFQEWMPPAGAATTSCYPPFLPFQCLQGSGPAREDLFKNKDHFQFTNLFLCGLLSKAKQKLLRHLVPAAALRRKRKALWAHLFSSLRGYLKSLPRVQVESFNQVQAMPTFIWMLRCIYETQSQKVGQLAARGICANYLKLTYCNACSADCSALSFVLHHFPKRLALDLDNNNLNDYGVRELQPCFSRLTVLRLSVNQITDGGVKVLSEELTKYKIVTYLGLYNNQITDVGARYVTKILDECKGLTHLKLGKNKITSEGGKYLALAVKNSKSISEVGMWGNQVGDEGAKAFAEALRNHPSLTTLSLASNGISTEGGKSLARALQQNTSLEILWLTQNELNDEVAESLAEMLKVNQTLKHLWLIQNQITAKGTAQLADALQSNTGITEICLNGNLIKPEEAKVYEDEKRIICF
Description: blockers of NOD1 pathway activity – revised, SAR follow-up (AID 2333). The class given is functional.

In assay [11] the test system is HEK293. Description: inhibition of NOD1-driven NF-kB reporter – cell-based, luminescence, uHTS, primary screen (AID 1578). In kind it is functional. To be noted: Homo sapiens.
For assay [12], the system named is HEK293. Put plainly: cells. To be noted: Homo sapiens. In kind it is functional, cell-based. This is another data set of the same source.
Another assay has as its target Tumor necrosis factor (Homo sapiens, UniProt P01375). Put plainly: analog potency on TNFa NF-kB signaling – cell-based, revised, SAR follow-up (AID 2337). The class given is functional.
The subject of assay [13] is HEK293. Description: cells. To be noted: Homo sapiens.
The subject of assay [14] is HEK293. Description: NOD2 signaling inhibitors in MDP-stimulated cells, cell-based, uHTS, luminescence (AID 2001). In kind it is functional. Conditions: Homo sapiens.
In assay [15] the target is Serine/threonine-protein phosphatase PP1-alpha catalytic subunit (Homo sapiens, UniProt P62136). Put plainly: inhibition of protein phosphatase 1 activity – biochemical, fluorescence, dose response (AID 2403).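 Note: phosphatase turnover of OMFP into fluorescent 3-O-methylfluorescein.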
Assay [16] has as its target Disintegrin and metalloproteinase domain-containing protein 17 (Homo sapiens, UniProt P78536). Description: exosite inhibitors of ADAM17, dose response, biochemical (AID 743260).
The next assay concerns Vero. Put plainly: viability of Vero cells under compound – cytotoxicity control for flavivirus capping enzyme inhibitors (AID 588742). In kind it is functional. To be noted: Chlorocebus sabaeus.
In assay [17] the target is T3, Alkaline phosphatase, tissue-nonspecific isozyme (Homo sapiens, UniProt P05186).
T3 sequence (P05186 whole entry): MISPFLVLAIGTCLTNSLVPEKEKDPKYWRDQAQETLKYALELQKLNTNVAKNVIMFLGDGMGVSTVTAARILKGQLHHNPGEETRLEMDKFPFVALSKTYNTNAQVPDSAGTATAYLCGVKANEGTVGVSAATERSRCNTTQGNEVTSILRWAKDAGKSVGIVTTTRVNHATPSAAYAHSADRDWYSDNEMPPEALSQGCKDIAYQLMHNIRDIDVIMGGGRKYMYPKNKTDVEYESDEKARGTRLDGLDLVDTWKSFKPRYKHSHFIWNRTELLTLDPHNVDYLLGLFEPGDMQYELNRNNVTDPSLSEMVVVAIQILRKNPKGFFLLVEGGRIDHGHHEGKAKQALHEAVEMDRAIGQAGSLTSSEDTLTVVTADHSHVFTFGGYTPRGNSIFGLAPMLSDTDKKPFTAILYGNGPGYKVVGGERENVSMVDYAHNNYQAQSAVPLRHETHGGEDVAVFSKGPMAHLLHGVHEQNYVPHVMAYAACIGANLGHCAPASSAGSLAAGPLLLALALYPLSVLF

For another assay, the system named is Streptococcus. Put plainly: GAS UMAA2166 growth inhibition – luminescence, BacTiterGlo, counter-screen for streptokinase expression inhibitor project, dose response (AID 1915).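 Note: potency for reduction of bacterial viability or growth.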 The class given is functional, organism-based.
In assay [18] the test system is Streptococcus sp. 'group A'. Put plainly: Streptococcus pyogenes SK(-)GAS viability under kanamycin – luminescence, BacTiterGlo, confirmation, counter-screen for streptokinase expression inhibitor project, dose response (AID 1900). In kind it is functional, organism-based.
For the next assay, the target named is Nonstructural protein 1 (Influenza A virus, UniProt Q194T2). The class given is functional, Influenza A virus (A/California/07/2009(H1N1)).
A further assay concerns the target T4, Streptokinase A (Streptococcus pyogenes serotype M1, UniProt P10520).
T4 sequence (P10520 whole entry): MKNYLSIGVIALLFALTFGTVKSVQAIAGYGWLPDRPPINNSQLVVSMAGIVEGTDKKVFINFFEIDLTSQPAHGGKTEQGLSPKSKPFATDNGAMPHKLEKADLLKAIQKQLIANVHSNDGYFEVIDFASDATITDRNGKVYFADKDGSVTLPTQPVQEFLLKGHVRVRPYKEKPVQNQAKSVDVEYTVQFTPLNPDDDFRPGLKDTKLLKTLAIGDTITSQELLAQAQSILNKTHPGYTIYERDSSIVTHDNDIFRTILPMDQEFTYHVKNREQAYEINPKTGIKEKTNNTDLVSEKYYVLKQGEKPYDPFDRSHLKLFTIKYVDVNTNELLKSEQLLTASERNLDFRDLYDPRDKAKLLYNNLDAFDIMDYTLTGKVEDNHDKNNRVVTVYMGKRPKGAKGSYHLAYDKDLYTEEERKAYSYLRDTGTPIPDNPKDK
Description: viability-normalized secreted streptokinase activity reduction – plasminogen activation absorbance, OD405, dose response (AID 1914).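 Note: secreted streptokinase activity via plasminogen activation per viability signal from cell pellet.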 The class given is functional, Streptococcus pyogenes M1 GAS.

The target in assay [19] is Serine/threonine-protein phosphatase (Homo sapiens, UniProt Q9BPW0). Put plainly: Counterscreen for inhibitors of PP1: fluorescence-based biochemical high throughput dose response assay to identify inhibitors of Protein Phosphatase 5 (PP5). [Related pubchem assays: 2034 (Summary (PP5 inhibitors)), 1987 (PP5 inhibitors in singlate), 2235 (PP1 inhibitors in singlate)].

Assay [20] addresses Lysosomal acid glucosylceramidase (Homo sapiens, UniProt P04062). Description: Dose response cell-based high throughput screening assay to identify enhancers of beta-glucosidase activity. [Related pubchem assays: 784 ]. The class given is functional.
A further assay addresses T5, Aspartyl aminopeptidase (Plasmodium falciparum 3D7, UniProt Q8I2J3).
T5 sequence (Q8I2J3 whole entry): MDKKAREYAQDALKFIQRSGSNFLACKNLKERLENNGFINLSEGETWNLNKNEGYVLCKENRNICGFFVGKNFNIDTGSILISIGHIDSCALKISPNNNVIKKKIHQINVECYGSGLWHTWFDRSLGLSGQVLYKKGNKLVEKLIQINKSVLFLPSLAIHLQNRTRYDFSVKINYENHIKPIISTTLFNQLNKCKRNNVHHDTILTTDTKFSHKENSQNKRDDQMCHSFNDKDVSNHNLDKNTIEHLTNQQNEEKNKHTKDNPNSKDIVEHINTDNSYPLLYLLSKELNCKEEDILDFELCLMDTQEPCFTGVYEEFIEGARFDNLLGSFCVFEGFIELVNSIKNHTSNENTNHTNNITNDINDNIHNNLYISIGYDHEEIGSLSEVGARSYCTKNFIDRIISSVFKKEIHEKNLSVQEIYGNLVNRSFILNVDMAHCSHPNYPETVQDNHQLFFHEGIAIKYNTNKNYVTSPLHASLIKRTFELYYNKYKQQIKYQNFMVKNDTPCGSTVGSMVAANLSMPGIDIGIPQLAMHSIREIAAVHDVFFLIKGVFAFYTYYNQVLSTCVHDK

A further assay has as its target Procathepsin L (Homo sapiens, UniProt P07711).
The target in another assay is Cytochrome P450 2D6 (Homo sapiens, UniProt P10635). Put plainly: qHTS Assay for Inhibitors and Substrates of Cytochrome P450 2D6. [Related pubchem assays: 410 ]. In kind it is ADME. Conditions: read-out: Potency.

Structures are written as SMILES. Calls of active or inactive are those of the source. A value given as a limit tells only on which side of the number the result lay.

T1 sequence (P0DMV8 whole entry, the tested form may be a part): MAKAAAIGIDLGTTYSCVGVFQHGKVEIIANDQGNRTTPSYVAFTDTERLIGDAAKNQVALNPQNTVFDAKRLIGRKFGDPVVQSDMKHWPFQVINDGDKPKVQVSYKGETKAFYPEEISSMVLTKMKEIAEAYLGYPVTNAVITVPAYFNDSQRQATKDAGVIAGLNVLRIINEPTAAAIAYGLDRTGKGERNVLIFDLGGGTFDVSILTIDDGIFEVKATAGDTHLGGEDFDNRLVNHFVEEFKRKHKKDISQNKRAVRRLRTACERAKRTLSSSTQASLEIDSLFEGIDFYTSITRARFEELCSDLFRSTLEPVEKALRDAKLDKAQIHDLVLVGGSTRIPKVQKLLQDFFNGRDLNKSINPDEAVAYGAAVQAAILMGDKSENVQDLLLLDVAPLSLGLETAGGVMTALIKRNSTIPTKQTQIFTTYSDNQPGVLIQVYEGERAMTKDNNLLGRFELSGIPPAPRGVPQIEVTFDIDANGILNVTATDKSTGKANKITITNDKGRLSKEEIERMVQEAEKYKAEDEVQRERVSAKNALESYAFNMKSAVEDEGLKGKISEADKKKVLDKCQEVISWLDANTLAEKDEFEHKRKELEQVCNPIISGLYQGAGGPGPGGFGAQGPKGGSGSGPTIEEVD
Neuropeptides B/W receptor type 1, sequence (P48145 whole entry): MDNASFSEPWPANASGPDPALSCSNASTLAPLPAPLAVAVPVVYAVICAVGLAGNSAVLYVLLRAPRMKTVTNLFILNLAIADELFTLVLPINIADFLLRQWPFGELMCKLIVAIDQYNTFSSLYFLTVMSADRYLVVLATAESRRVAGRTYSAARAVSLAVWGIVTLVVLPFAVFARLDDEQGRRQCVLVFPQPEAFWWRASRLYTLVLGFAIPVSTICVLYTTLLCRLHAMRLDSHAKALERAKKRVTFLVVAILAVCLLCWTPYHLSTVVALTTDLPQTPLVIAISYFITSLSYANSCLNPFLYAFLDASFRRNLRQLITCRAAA
Nucleotide-binding oligomerization domain-containing protein 2, sequence (Q9HC29 whole entry, the tested form may be a part): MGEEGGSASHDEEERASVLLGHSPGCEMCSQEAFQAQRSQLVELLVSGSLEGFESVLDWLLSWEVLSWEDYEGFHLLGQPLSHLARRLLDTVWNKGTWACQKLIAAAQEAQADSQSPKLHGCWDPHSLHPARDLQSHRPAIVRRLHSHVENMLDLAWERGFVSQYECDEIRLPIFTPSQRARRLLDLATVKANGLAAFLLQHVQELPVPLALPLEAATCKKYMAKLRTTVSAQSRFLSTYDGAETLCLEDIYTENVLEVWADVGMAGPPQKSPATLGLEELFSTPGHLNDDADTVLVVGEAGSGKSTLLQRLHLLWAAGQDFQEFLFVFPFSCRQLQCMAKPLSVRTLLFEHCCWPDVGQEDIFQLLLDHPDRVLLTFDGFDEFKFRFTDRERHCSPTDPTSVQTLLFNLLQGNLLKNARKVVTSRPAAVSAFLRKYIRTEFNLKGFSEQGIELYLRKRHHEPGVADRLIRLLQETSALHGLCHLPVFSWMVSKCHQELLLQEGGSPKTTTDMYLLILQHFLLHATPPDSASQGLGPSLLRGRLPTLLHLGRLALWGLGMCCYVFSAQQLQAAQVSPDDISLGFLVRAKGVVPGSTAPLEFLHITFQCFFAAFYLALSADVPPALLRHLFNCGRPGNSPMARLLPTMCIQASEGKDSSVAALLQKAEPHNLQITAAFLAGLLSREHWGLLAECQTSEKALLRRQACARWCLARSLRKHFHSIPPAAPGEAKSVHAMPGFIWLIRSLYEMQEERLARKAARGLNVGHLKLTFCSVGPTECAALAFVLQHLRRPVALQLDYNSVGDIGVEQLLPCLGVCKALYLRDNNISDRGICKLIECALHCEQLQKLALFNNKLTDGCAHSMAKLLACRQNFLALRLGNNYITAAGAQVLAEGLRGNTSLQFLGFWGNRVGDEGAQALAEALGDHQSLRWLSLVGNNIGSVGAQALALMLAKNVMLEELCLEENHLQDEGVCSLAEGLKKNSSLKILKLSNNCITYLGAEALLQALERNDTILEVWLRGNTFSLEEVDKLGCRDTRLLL
Disintegrin and metalloproteinase domain-containing protein 17, sequence (P78536 whole entry, the tested form may be a part): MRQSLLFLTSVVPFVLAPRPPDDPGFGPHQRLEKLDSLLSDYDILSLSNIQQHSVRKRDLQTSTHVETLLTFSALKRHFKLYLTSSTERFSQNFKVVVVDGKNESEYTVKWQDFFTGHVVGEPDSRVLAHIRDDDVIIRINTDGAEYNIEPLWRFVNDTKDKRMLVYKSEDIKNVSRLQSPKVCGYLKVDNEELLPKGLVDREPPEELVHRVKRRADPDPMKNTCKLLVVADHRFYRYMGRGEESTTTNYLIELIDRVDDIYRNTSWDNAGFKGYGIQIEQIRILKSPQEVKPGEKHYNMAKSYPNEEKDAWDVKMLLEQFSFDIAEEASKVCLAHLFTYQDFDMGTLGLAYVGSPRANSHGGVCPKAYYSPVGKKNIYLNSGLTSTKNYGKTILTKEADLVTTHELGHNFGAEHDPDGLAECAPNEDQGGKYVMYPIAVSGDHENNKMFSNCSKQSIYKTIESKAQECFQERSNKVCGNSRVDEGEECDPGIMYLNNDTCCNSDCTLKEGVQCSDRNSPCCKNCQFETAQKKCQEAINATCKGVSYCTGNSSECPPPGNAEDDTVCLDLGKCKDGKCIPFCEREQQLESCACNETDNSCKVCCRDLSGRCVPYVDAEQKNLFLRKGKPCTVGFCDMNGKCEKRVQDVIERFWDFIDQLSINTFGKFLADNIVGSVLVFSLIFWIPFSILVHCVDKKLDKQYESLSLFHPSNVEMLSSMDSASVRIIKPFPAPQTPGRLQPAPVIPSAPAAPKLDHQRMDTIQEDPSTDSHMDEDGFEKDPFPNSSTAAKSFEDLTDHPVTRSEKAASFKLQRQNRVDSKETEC
Procathepsin L, sequence (P07711 whole entry): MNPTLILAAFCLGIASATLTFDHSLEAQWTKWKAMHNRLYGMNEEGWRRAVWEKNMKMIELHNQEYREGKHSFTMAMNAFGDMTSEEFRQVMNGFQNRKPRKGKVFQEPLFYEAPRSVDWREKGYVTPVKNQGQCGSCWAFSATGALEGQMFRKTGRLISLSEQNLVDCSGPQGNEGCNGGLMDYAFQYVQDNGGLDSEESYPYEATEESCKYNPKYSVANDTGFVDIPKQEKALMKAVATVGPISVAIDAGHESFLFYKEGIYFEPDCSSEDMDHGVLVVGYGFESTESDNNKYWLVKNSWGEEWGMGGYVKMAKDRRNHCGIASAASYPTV
Lysosomal acid glucosylceramidase, sequence (P04062 whole entry): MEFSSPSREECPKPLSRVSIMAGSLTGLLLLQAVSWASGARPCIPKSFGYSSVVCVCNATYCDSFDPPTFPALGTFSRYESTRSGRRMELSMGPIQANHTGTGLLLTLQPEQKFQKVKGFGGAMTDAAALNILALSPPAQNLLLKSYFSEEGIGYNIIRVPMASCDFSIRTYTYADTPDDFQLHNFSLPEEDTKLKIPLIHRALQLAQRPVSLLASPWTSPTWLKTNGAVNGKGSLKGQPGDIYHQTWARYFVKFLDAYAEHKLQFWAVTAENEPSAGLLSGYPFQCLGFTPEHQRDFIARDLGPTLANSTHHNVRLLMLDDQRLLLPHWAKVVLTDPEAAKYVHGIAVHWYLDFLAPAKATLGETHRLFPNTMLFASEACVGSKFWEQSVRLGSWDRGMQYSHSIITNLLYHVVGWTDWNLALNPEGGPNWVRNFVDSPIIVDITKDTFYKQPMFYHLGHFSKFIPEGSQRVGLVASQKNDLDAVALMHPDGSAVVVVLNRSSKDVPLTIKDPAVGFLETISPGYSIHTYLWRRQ
Melanin-concentrating hormone receptor 1, sequence (Q99705 whole entry): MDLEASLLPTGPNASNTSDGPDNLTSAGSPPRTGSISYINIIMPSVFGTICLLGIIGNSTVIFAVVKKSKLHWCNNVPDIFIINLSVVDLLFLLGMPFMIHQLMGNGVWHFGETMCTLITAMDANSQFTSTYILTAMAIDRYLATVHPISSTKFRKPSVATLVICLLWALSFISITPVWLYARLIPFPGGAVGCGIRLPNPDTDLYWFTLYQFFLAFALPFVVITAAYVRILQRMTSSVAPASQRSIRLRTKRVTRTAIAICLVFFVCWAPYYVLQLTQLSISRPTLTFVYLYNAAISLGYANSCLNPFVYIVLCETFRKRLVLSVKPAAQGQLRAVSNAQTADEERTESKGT
Serine/threonine-protein phosphatase PP1-alpha catalytic subunit, sequence (P62136 whole entry, the tested form may be a part): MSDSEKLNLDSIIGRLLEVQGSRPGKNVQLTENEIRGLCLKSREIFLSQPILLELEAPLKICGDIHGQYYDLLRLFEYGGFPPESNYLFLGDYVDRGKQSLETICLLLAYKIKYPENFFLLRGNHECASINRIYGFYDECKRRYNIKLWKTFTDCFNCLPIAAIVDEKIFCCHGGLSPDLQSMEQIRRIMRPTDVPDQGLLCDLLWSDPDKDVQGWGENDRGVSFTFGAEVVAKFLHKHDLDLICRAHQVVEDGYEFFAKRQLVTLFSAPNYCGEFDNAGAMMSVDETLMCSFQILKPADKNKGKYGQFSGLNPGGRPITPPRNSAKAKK
Tumor necrosis factor, sequence (P01375 whole entry): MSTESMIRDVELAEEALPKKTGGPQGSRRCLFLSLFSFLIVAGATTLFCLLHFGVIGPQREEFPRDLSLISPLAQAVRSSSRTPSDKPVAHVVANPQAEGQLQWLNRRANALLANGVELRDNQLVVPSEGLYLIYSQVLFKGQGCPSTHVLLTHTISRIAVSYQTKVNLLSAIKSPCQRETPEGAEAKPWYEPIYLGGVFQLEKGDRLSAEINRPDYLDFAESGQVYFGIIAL
Nonstructural protein 1, sequence (Q194T2 whole entry): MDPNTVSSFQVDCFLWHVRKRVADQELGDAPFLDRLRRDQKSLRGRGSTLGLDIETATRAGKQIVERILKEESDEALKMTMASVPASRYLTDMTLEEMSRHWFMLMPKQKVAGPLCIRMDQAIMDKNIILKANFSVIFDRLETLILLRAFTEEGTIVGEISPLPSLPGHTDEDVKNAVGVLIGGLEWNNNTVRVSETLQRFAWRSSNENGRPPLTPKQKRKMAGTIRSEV

`O=C(CCN(CCO)Cc1ccccc1)Nc1ccc(Br)cc1`: the IC50 in assay [1] is 17.6 µM (not active); in [2] it was > 14.6 µM (not active).

Regarding `O=[N+]([O-])c1ccc(Cl)c(/C=C/c2cc(C(F)(F)F)nc(O)n2)c1`, the IC50 is > 20 µM (inactive) in the assay on HEK293 [3]; > 100 µM (not active) in assay [5]; > 20 µM (inactive) in the assay on HEK293 [7]; 46.4 µM (active) in assay [9]; 4.4 µM (active) in [10]; 10.2 µM (active) in the assay on HEK293 [12]. Moreover, the IC50 on Tumor necrosis factor is 10.3 µM (active); with HEK293 [13], > 20 µM (inactive); in the assay on HEK293 [14] it was 11.8 µM (inactive). Moreover, the EC50 in assay [4] was 1.8 µM (active); in assay [6], > 20 µM (inactive); in assay [8], > 150 µM (inactive); with HEK293 [11] it was 6.85 µM (active).

Regarding `Oc1c(C(c2ccccn2)N2CCCCC2)cc(Cl)c2cccnc12` (stereo not drawn), the 50% inhibitory concentration (IC50) was 2.48 µM (active) in [15], 17 µM (inactive) in [16], 8.02 µM (active) at Nonstructural protein 1 and 42.3 µM (not active) in [19]. Besides, the CC50 with Vero is 31.4 µM (active). For the same compound, the EC50 in [17] is 81.1 µM (not active); in the assay with Streptococcus it was 15.4 µM (active); in [18], 6.02 µM (active); at Streptokinase A, > 150 µM (not active).

With `CCCCNC(=O)C1CCCN1C(=O)Nc1cccc(OC)c1` (stereo not drawn), the EC50 in assay [20] is on record as > 50 µM (not active).

Regarding `CN1C(=O)N(c2cccc3ccccc23)C(n2cncn2)C1(C)C` (stereo not drawn), the IC50 was 1.8 µM (active) at Aspartyl aminopeptidase and > 59.6 µM (not active) against Procathepsin L.

With `C=C(C)C(O)C(CC/C=C(\C)C(=O)OCC)OC` (stereo not drawn), the AC50 at Cytochrome P450 2D6 was 3.16 µM (inconclusive).
